Experimental data reported in patent US20200199501A1, “SOLVENT COMPOSITIONS CONTAINING 1,2,2-TRIFLUORO-1-TRIFLUOROMETHYLCYCLOBUTANE (TFMCB)” (Honeywell International Inc., priority 2018, published 2020).

Experiment: Acute inhalation toxicity (OECD Guideline No. 403)
Conditions: in vivo, inhaled, OECD Guideline No. 403 (2009), Method B.2 of Commission Regulation (EC) No. 440/2008
From the text: LC50 is a measure of the acute toxicity of a compound. The acute inhalation toxicity of a compound can be assessed using the method described in the OECD Guideline for Testing of Chemicals No. 403 “Acute Inhalation Toxicity” (2009), Method B.2. (Inhalation) of Commission Regulation (EC) No. 440/2008.

SMILES: FC(F)(F)C1(F)CCC1(F)F (stereo not shown) [TFMCB, 1,2,2-trifluoro-1-trifluoromethylcyclobutane]
- LC50: > 19.1 µg/mL
